Experimental data published in patent publication US11603395B2, “Antitumor peptide and use thereof” (TOAGOSEI CO., LTD, priority 2019, dated 2023).
Read-outs that look alike come from different tables or passages of the source. Where no end group is shown, it is not given here.

Columns and labels:
[1] = tested on: human kidney cancer cell lines (CAKI2); assay: Antitumor index from viability of CAKI2 cells vs MCF-12F normal cells (Cell Counting Kit-8, WST-8); assay type: cell-based; conditions: 48 hours; for Proliferation of CAKI2 cells (in words): 6.25-25 μM; for Antitumor index: CAKI2 viability A / MCF-12F viability B
Procedure: (§1) Then, peptide-containing test culture mediums for each concentration were prepared so that the concentrations of the sample peptides to be evaluated were 6.25 μM, 12.5 μM, and 25 μM and supplied to wells (that is, wells after the pre-incubation) in which 90 μL of cells to be evaluated were cultured in each well. Then, the 96-hole (well) plate was returned to the CO2 incubator and incubated under conditions of 37° C. and 5% CO2 for 48 hours.
(§2) After the incubation for 48 hours was completed, the culture medium in each well was substituted with 100 μL of a fresh culture medium containing no peptide, and additionally, 10 μL of a cell proliferation measurement reagent “Cell Counting Kit-8” (product, commercially available from Dojindo Laboratories) containing a “water-soluble tetrazolium salt (WST-8)” as a coloring reagent was added to each well. Then, the 96-well plate was returned to the CO2 incubator and incubated under conditions of 37° C., and 5% CO2 for 1.5 hours to 2 hours.
(§3) After the incubation was completed, the cell culture solution to which the reagent was added was collected and the cell viability (%) was calculated according to a colorimetric method in which an absorbance at a wavelength of 450 nm (value corrected by the absorbance at a wavelength of 620 nm: A450-A620) was measured based on the reduction of the tetrazolium salt. Specifically, a measured value (measurement absorbance) of a comparative test group in which the above incubation was performed for 48 hours in a culture medium containing no sample peptide was set as a cell viability of 100%. Then, the viability A (%) of A2058 cells and the viability B (%) of MCF-12F cells were calculated. In addition, an antitumor index was calculated based on the viability of A2058 cells and MCF-12F cells using the above Formula (1), and thus the antitumor activity of the sample peptide with respect to A2058 cells was evaluated.
The antitumor activity of Sample 3 and Sample 4 in the above Test Example 1 was evaluated using different tumor cells as targets.
Specifically, currently commercially available human kidney cancer cell lines (CAKI2) were used as test tumor cells. In addition, the above MCF-12F cells were used for comparison.
a McCoy's 5A culture medium (product, commercially available from Gibco) containing 2 mM of L-glutamine, 3,000 mg/L of glucose, 100 unit/mL of penicillin, 100 μg/mL of streptomycin, and 10% fetal bovine serum (FBS).
Details of the test were as those described in Test Example 2. The antitumor index based on the viabilities of CAKI2 cells and MCF-12F cells calculated using the above Formula (1) is shown in Table 3.

[2] = tested on: human melanoma (A2058) cell lines; assay: Antitumor index from viability of A2058 cells vs MCF-12F normal cells (Cell Counting Kit-8, WST-8); assay type: cell-based; conditions: 48 hours; for Antitumor activity / proliferation of A2058 cells (in words): 6.25-25 μM; for Antitumor index: A2058 viability A / MCF-12F viability B, n=6 wells
Procedure: Specifically, for example, a test using a conventionally known cell proliferation measurement reagent using a tetrazolium salt is performed so that the antitumor index can be calculated. In a preferable aspect, first, the antitumor composition disclosed here is added to a culture solution containing tumor cells, culture is performed for a predetermined time (for example, 24 hours or longer and 72 hours or shorter), and the viability A (%) of tumor cells is calculated. In addition, the viability B (%) of normal cells cultured under the same conditions is calculated. Then, the antitumor index based on the viabilities of tumor cells and normal cells calculated in this manner can be evaluated according to, for example, the following Formula (1):
Antitumor index based on viabilities of tumor cells and normal cells=A/B (1).
The antitumor activity of the peptides of Samples 1 to 4 synthesized in the above Test Example 1 was evaluated using human-derived cultured tumor cells as targets.
Specifically, currently commercially available human melanoma (A2058) cell lines were used as test tumor cells. In addition, a normal human mammary epithelial cell culture line (MCF-12F) was used for comparison. Here, culture solutions of respective cells are as follows.
A2058 cells and MCF-12F cells were cultured and prepared so that the number of cells per well in a 96-hole (well) plate was about 5×10^3. An amount of the culture medium in this case was 100 μL per well.
Next, the 96-hole (well) plate was placed in a CO2 incubator and pre-incubated under conditions of 37° C. and 5% CO2 for about 1 day (21 hours to 24 hours).
as §1
Here, the number of test wells (n) at peptide concentrations in peptide addition test groups was set to 6. Therefore, the value of the result shown in the following table is an average value of the results obtained in 6 test wells.
as §2, §3

[3] = tested on: human melanoma cell line (SK-MEL5); assay: Antitumor index from viability of SK-MEL5 cells vs MCF-12F normal cells (Cell Counting Kit-8, WST-8); assay type: cell-based; conditions: 6.25 μM, 48 hours
[4] = tested on: A2058 cells (tumor cells); assay type: cell-based, human; conditions: 48 hours; for Cell viability (%): human
Procedure: Then, peptide-containing test culture mediums for each concentration were prepared so that the concentrations of the sample peptides to be evaluated were 6.25 μM, 12.5 μM, and 25 μM and supplied to wells (that is, wells after the pre-incubation) in which 90 μL of cells to be evaluated were cultured in each well. Then, the 96-hole (well) plate was returned to the CO2 incubator and incubated under conditions of 37° C. and 5% CO2 for 48 hours. After the incubation for 48 hours was completed, the culture medium in each well was substituted with 100 μL of a fresh culture medium containing no peptide, and additionally, 10 μL of a cell proliferation measurement reagent “Cell Counting Kit-8” (product, commercially available from Dojindo Laboratories) containing a “water-soluble tetrazolium salt (WST-8)” as a coloring reagent was added to each well. Then, the 96-well plate was returned to the CO2 incubator and incubated under conditions of 37° C., and 5% CO2 for 1.5 hours to 2 hours. After the incubation was completed, the cell culture solution to which the reagent was added was collected and the cell viability (%) was calculated according to a colorimetric method in which an absorbance at a wavelength of 450 nm (value corrected by the absorbance at a wavelength of 620 nm: A450-A620) was measured based on the reduction of the tetrazolium salt. Specifically, a measured value (measurement absorbance) of a comparative test group in which the above incubation was performed for 48 hours in a culture medium containing no sample peptide was set as a cell viability of 100%. Then, the viability A (%) of A2058 cells and the viability B (%) of MCF-12F cells were calculated. In addition, an antitumor index was calculated based on the viability of A2058 cells and MCF-12F cells using the above Formula (1), and thus the antitumor activity of the sample peptide with respect to A2058 cells was evaluated. Using tumor cells as targets, the antitumor activity was evaluated using a synthetic peptide having a sequence completely different from those of Samples 1 to 4. Specifically, the viability (%) of A2058 cells (tumor cells) when Sample 5 was treated was evaluated. Details of the test were as those described in Test Example 2. Here, the viability of A2058 cells cultured in a culture medium containing no Sample 5 for the same time was set as 100%, and the viability (%) of A2058 cells cultured under the treatment of Sample 5 was calculated.

With “IAAVIFGFLATAAYAVNTFLAKKRTLRKNDRKKR (IAAVIFGFLATAAYAVNTFLAKKRTLRKNDRKKR-NH2) [Sample 4]” the “Proliferation of CAKI2 cells (in words)” value [1] was “significantly reduced proliferation”, the Antitumor index ([1]; peptide 6.25 μM) was 1.41 and the Antitumor index ([1]; peptide 12.5 μM) was 0.83. The Antitumor index ([1]; peptide 25 μM) was 0.22, the “Antitumor activity / proliferation of A2058 cells (in words)” value [2] was “stronger antitumor activity” and the Antitumor index ([2]; peptide 6.25 μM) was 0.84. The Antitumor index ([2]; peptide 12.5 μM) was 0.65 and the Antitumor index ([2]; peptide 25 μM) was 0.12.
In the case of “LVNTGLSAFLFFIASIVLAALKKRTLRKNDRKKR (LVNTGLSAFLFFIASIVLAALKKRTLRKNDRKKR-NH2) [Sample 3]”, the “Proliferation of SK-MEL5 cells (in words)” value [3] is reported as “significantly reduced proliferation”, the “Proliferation of CAKI2 cells (in words)” value [1] is reported as “significantly reduced proliferation” and the Antitumor index ([1]; peptide 6.25 μM) is reported as 0.77. For the same substance, the Antitumor index ([1]; peptide 12.5 μM) was 0.1 and the “Antitumor activity / proliferation of A2058 cells (in words)” value [2] was “stronger antitumor activity”.
With “MGSNLSPQLCLMPFILGLLSGGVTTKKRTLRKNDRKKR-NH2 [Sample 5]” the “Antitumor activity (in words)” value ([4]; A2058 cells, 6.25-25 μM) was “no antitumor activity”, the “Cell viability (%)” value ([4]; 6.25 μM) was 110.7% and the “Cell viability (%)” value ([4]; 12.5 μM) was 109.9%. The “Cell viability (%)” value ([4]; 25 μM) was 113.6%.
For “VAQVILALIAFICIETIMACSKKRTLRKNDRKKR (VAQVILALIAFICIETIMACSKKRTLRKNDRKKR-NH2; cysteine pairing not given here) [Sample 1]”, the Antitumor index ([2]; peptide 6.25 μM) was 1.17, the Antitumor index ([2]; peptide 12.5 μM) was 0.71 and the Antitumor index ([2]; peptide 25 μM) was 0.74.
In the case of “YFFEFVSCSAFVVTGVLLIMFKKRTLRKNDRKKR [Sample 2]”, the Antitumor index ([2]; peptide 6.25 μM) is reported as 0.79, the Antitumor index ([2]; peptide 12.5 μM) is reported as 0.61 and the Antitumor index ([2]; peptide 25 μM) is reported as 0.52.
